Results on 120 compounds are retold here after a melting point compilation (Tetko et al.).

Usually melting point stands for the temperature, or range, at which the solid turns liquid.

As for `O=C1CNc2ccccc2C(=O)N1`, the melting point lay within 207 to 209 °C.
With `C=CCN(c1ccc(OC)cc1)S(=O)(=O)c1ccc(Cl)c(C(=O)O)c1` the figure was 109 to 111 °C; with `Fc1ccccc1-c1nnc(S)[nH]1`, 154 to 156 °C.
`Nn1c(S)nnc1-c1cccs1` showed a melting point of 216 to 220 °C.
Turning to `O=C(CCl)Nc1nc(-c2ccc(F)cc2)cs1`, the melting point lay within 142 to 144 °C.
The result for `CN(C(=O)C1CC1)c1ccccc1C(=O)O` reads 166 to 168 °C.
The result for `O=C(O)C=Cc1cc(Br)ccc1OCc1ccccc1Cl` reads 192 to 194 °C; that for `Cc1nn(-c2ncccn2)c(N)c1Br`, 159 to 161 °C; that for `O=C(O)c1c(C(F)(F)F)nn(-c2ccccc2)c1C(F)(F)F`, 156 to 158 °C.
For `CCCc1nnc(N)s1`, the melting point lay within 198 to 202 °C.
The result for `CN1CCC(=O)Nc2cc(Cl)ccc21` reads 138 to 140 °C; that for `O=[N+]([O-])c1ccc(CCl)c(Cl)c1`, 50 to 52 °C.
With `CN(C)c1ccnc(N)n1` the figure was 157 to 159 °C; with `O=C(O)c1ccccc1-n1cnnn1`, 190 to 194 °C.
As to `CS(=O)(=O)c1cc(Br)ccc1N`, the melting point was 129 to 131 °C.
With `CC(=O)c1cccc(-c2ccncc2)c1` the figure was 64 to 66 °C; with `Cc1nc(-c2ccc(S(=O)(=O)Cl)cc2)co1`, 84 to 86 °C.
With `O=C(O)CSCc1ccc(Br)cc1F` the figure was 57 to 59 °C; with `Cc1cc([N+](=O)[O-])ccc1S(=O)(=O)Cl`, 69 to 71 °C; with `Nc1cccnc1Nc1ccccc1`, 135 to 137 °C.
Consider `CCOc1ccc(N)cc1Cl`, for which the melting point was 63 to 65 °C.
The compound `CC(C)c1cc(N)n(C(C)C)n1` returned a melting point of 52 to 54 °C.
The compound `NCc1cc(Br)c2c(c1)OCO2` gave a melting point of 49 to 51 °C.
With `NC(=O)CCSc1ccccc1F` the figure was 84 to 86 °C; with `CN(C)CCNS(=O)(=O)c1ccc(Cl)c([N+](=O)[O-])c1`, 88 to 90 °C.
For `C=CCn1c(=O)c2ccccc2n2c(S)nnc12`, the melting point was in the range of 177 to 179 °C.
With `Cc1ccc(F)c(-c2nc(C(=O)O)no2)c1` the figure was 107 to 109 °C; with `Cc1ccc(C(N)CC(=O)O)o1` (stereo not given), 199 to 201 °C.
`O=C(O)c1cc(S(=O)(=O)Cl)cc(F)c1Cl`: the melting point was 149 to 151 °C.
The result for `CC1CC(=O)NC(=O)C1` reads 144 to 146 °C.
With `O=[N+]([O-])c1ccc2[nH]c3c(c2c1)CCCC3` the figure was 172 to 174 °C.
Consider `O=S(=O)(Cl)C1=Cc2ccccc2CC1`, for which the melting point fell in the range of 59 to 61 °C.
With `Cc1cc(Cl)c2cc(Br)cc(C)c2n1`, the melting point was 134 to 136 °C.
The result for `COc1ccc(N)cc1OCc1cn2ccccc2n1` reads 190 to 192 °C; that for `Cc1c(Br)cc(S(=O)(=O)Cl)cc1C(=O)O`, 167 to 169 °C.
In turn, `Cc1nnc(Cl)c(C#N)c1C` displayed a melting point of 61 to 63 °C.
The result for `Cc1nc(N2CCCCC2)sc1C=O` reads 113 to 115 °C.
Regarding `NNC(=O)NCC(F)(F)F`, the melting point lay within 68 to 70 °C.
The result for `O=C(CBr)c1ccc2c(c1)CCC2` reads 57 to 59 °C; that for `Cc1ccc(OCc2ccc(C(=O)O)o2)cc1`, 204 to 206 °C; that for `O=Cc1cccc(Br)c1OC(F)F`, 49 to 51 °C.
With `CCCC(C(=O)O)c1ccccc1` (stereo not given) the figure was 63 to 67 °C.
With `CN1C(=O)CC(C(N)=O)C1c1cccc(Cl)c1` (stereo not given) the figure was 188 to 190 °C; with `COc1ccc2c(CCl)cc(=O)oc2c1`, 189 to 191 °C; with `NC(=O)NC(CC(=O)O)c1cccs1` (stereo not given), 190 to 192 °C.
Compound `O=C(O)C1(c2ccc(OCc3ccccc3)cc2)CCOCC1` had a melting point of 151 to 153 °C.
Compound `CS(=O)(=O)CCCS(=O)(=O)Cl` returned a melting point of 62 to 64 °C.
The compound `CCCc1[nH]c2ccccc2c1CC` returned a melting point of 43 to 45 °C.
The result for `Nc1cc(C(=O)O)ccc1Oc1ccccc1` reads 146 to 148 °C; that for `CC(C)CN(C(=O)CCl)C1CCS(=O)(=O)C1` (stereo not given), 150 to 155 °C; that for `NC(=S)CF`, 53 to 55 °C.
For the compound `Cc1ccc(OCCC(=O)O)c(Br)c1`, the melting point fell in the range of 119 to 121 °C.
In turn, `BrCC1CSc2nnc(-c3ccccc3)n21` (stereo not given) had a melting point of 157 to 159 °C.
As to `O=C(O)c1cccn1Cc1cccs1`, the melting point lay within 134 to 136 °C.
In turn, `COCCOc1cccc(C(=O)O)c1` showed a melting point of 80 to 82 °C.
With `CCOC(=O)c1ccc2nc(CCC(=O)O)c(=O)n(CC)c2c1` the figure was 181 to 185 °C; with `Nc1ccc(S(=O)(=O)NCc2ccco2)cc1`, 180 to 182 °C; with `Cn1cc(S(N)(=O)=O)cn1`, 121 to 123 °C.
For the compound `O=C(O)CCC(=O)c1ccc2c(c1)CCCC2`, the melting point was in the range of 122 to 124 °C.
The result for `Nc1ccc2[nH]nc(N)c2c1` reads 157 to 159 °C; that for `CC(C)(C)OC(=O)NC(C(N)=NO)c1ccccc1OC(F)(F)F` (stereo not given), 119 to 121 °C; that for `O=C(O)COc1ccc2ccc(=O)oc2c1`, 213 to 215 °C.
The result for `CNc1cnc(Cl)cc1C(=O)O` reads 279 to 281 °C; that for `O=S(=O)(Cl)C=Cc1ccc(Br)cc1`, 149 to 151 °C; that for `COC(=O)c1cc(N)cc(I)c1`, 79 to 81 °C.
The result for `Cc1nc(CO)c(C)s1` reads 44 to 46 °C; that for `CNC(C)c1ccc(S(N)(=O)=O)cc1` (stereo not given), 145 to 147 °C; that for `NNC(=O)c1ccc(S(=O)(=O)N2CCN(Cc3ccccc3)CC2)cc1`, 135 to 137 °C.
In turn, `Fc1ccc(-c2nc(CCl)no2)cc1` showed a melting point of 51 to 55 °C.
With `Nc1cc(-c2cc(F)cc(F)c2)[nH]n1` the figure was 110 to 112 °C; with `N#Cc1cc(C(=O)O)c(N)[nH]c1=O`, 250 to 252 °C.
`Cc1nn(Cc2ccccc2)c(C)c1CN`: the melting point is 39 to 41 °C.
As to `CCn1c(S)nc2ccccc21`, the melting point fell in the range of 135 to 137 °C.
Compound `Nc1nc2cc(Cl)ccc2s1` registered a melting point of 197 to 199 °C.
`Cn1c(C(N)c2ccccc2)nc2ccccc21` (stereo not given) displayed a melting point of 110 to 112 °C.
`Cc1ccc(-c2ccc(C=O)o2)cc1` came in with a melting point of 53 to 55 °C.
With `CC(NS(=O)(=O)c1ccccc1C(F)(F)F)C(=O)O` (stereo not given) the figure was 105 to 107 °C; with `Clc1nc(Cl)c2cn[nH]c2n1`, 127 to 129 °C.
Consider `O=C(O)c1ccc(-c2cccc(OC(F)(F)F)c2)s1`, for which the melting point was in the range of 149 to 151 °C.
With `Cc1ccc(Oc2ccc(O)cc2)cc1` the figure was 71 to 73 °C.
For `COC(=O)c1ccnc(Cl)c1`, the melting point fell in the range of 31 to 33 °C.
Take `NS(=O)(=O)c1ccc(-c2cccc(C(F)(F)F)c2)c(C(=O)O)c1`: the melting point lay within 181 to 183 °C.
Regarding `O=C(O)C1CC1(Cl)Cl` (stereo not given), the melting point was in the range of 74 to 76 °C.
The compound `Cc1nnc2n1CC(C(=O)O)CC2` (stereo not given) returned a melting point of 249 to 251 °C.
The compound `CN(C)S(=O)(=O)c1ccc2[nH]c(CO)nc2c1` had a melting point of 232 to 234 °C.
For `O=C(O)CNC(=O)CC1CCCC1`, the melting point lay within 98 to 100 °C.
With `CCNS(=O)(=O)c1ccc(Br)c(C(=O)O)c1` the figure was 198 to 200 °C; with `O=C(O)CN(Cc1ccccc1)S(=O)(=O)c1ccc(Cl)cc1`, 149 to 151 °C; with `Cc1ccc(C(=O)O)cc1S(=O)(=O)Nc1cc(Cl)ccc1F`, 181 to 183 °C.
The result for `Cn1ncnc1COc1ccc(S(=O)(=O)Cl)cc1` reads 114 to 116 °C; that for `O=S1(=O)CCC(NC2CCNCC2)C1` (stereo not given), 84 to 86 °C.
`O=C(O)C(=Cc1ccc(Cl)cc1)c1ccc(F)cc1`: the melting point lay within 204 to 206 °C.
With `N#Cc1cccc(C(=O)NNC(=O)CCl)c1` the figure was 199 to 201 °C; with `CCOC(=O)c1ccc(S(=O)(=O)N2CCC(C(=O)O)CC2)o1`, 170 to 172 °C; with `O=C(O)CNC(=O)c1ccc(F)cc1`, 169 to 171 °C.
The result for `c1ccc(CN(Cc2ccccc2)Cn2nnc3ccccc32)cc1` reads 118 to 120 °C.
`O=S1(=O)CCC(Cl)CC1`: the melting point fell in the range of 129 to 131 °C.
With `CC(O)CCNc1cc2nc[nH]c(=O)c2cc1N` (stereo not given), the melting point was in the range of 209 to 211 °C.
For `CC(C)(C)n1cc(C(=O)O)cn1`, the melting point is 155 to 157 °C.
The compound `CS(=O)(=O)Cc1ccc(Cl)c(N)c1` showed a melting point of 137 to 139 °C.
The compound `COc1ccc(Br)cc1Cc1nnn[nH]1` displayed a melting point of 180 to 182 °C.
`NCc1cccnc1O` yielded a melting point of 89 to 91 °C.
With `O=C(O)c1cnn(-c2ccccn2)c1C(F)(F)F` the figure was 156 to 158 °C.
As for `NS(=O)(=O)N1CCc2ccccc21`, the melting point was in the range of 149 to 151 °C.
`CCOc1ccc(C(=O)NCC(=O)O)cc1` yielded a melting point of 154 to 156 °C.
The result for `CC(C)(C)OC(=O)NC(C(=O)O)C(C)(C)C` (stereo not given) reads 117 to 119 °C; that for `Nc1ccccc1CC(F)(F)F`, 44 to 46 °C.
In turn, `O=C(O)c1cc(-c2ccc(Cl)cc2)nn1-c1ccccc1` came in with a melting point of 214 to 216 °C.
With `CN1CCN(S(=O)(=O)c2cccc(N)c2)CC1` the figure was 140 to 142 °C; with `CCc1nc2ccccc2n1CC(=O)NN`, 211 to 213 °C.
The result for `NC(Cc1ccc2c(c1)OCO2)C(=O)O` (stereo not given) reads 249 to 251 °C; that for `FC(F)(F)CNc1ccncc1`, 157 to 159 °C.
The result for `Cc1ccc(C(=O)c2cccnc2)cc1` reads 71 to 73 °C; that for `COc1ccc(OC)c(N2CC(C(=O)O)CC2=O)c1` (stereo not given), 100 to 102 °C; that for `CC(CO)CC(C)(C)N` (stereo not given), 64 to 66 °C.
In turn, `NS(=O)(=O)c1ccc(CNCC(F)(F)F)cc1` displayed a melting point of 129 to 131 °C.
As for `Cn1cc2c(cc1=O)CCN2`, the melting point was in the range of 204 to 206 °C.
Regarding `O=C(O)c1ccc(Cl)c(S(=O)(=O)Nc2ccc(Cl)cc2)c1`, the melting point fell in the range of 214 to 216 °C.
The result for `O=C(O)c1ccc(OCC2CC2)cc1` reads 254 to 256 °C.
With `O=C(NC(Cc1c[nH]cn1)C(=O)O)C1CCCCC1` (stereo not given) the figure was 127 to 129 °C.
